Results on four compounds are retold here after US7709498B2, “Quinoline derivatives as antibacterial agents” (Janssen Pharmaceutica N.V., priority 2005, dated 2010).

Common to all, as to type: cell-based
Assay [1] deals with Bacillus subtilis (ATCC43639). The experiment in a line: Microtitre plate assay, IC90 determination, BSU 43639. The settings on record: 90% inhibitory concentration for bacterial growth, 37° C., resazurin fluorescence. On the procedure:
(§1) The bacteria used in this study were grown overnight in flasks containing 100 ml Mueller-Hinton Broth (Becton Dickinson—cat. no. 275730) in sterile de-ionized water, with shaking, at 37° C. Stocks (0.5 ml/tube) were stored at −70° C. until use. Bacteria titrations were performed in microtiter plates to detect the TCID50, in which the TCID50 represents the dilution that gives rise to bacterial growth in 50% of inoculated cultures.
(§2) In general, an inoculum level of approximately 100 TCID50 was used for susceptibility testing.
(§3) Flat-bottom, sterile 96-well plastic microtiter plates were filled with 180 μl of sterile deionized water, supplemented with 0.25% BSA. Subsequently, stock solutions (7.8× final test concentration) of compounds were added in 45 μl volumes in column 2. Serial five-fold dilutions (45 μl in 180 μl) were made directly in the microtiter plates from column 2 to reach column 11. Untreated control samples with (column 1) and without (column 12) inoculum were included in each microtiter plate. Depending on the bacteria type, approximately 10 to 60 CFU per well of bacteria inoculum (100 TCID50), in a volume of 100 μl in 2.8× Mueller-Hinton broth medium, was added to the rows A to H, except column 12. The same volume of broth medium without inoculum was added to column 12 in row A to H. The cultures were incubated at 37° C. for 24 hours under a normal atmosphere (incubator with open air valve and continuous ventilation). At the end of incubation, one day after inoculation, the bacterial growth was quantitated fluorometrically. Therefore resazurin (0.6 mg/ml) was added in a volume of 20 μl to all wells 3 hours after inoculation, and the plates were re-incubated overnight. A change in colour from blue to pink indicated the growth of bacteria. The fluorescence was read in a computer-controlled fluorometer (Cytofluor Biosearch) at an excitation wavelength of 530 nm and an emission wavelength of 590 nm. The % growth inhibition achieved by the compounds was calculated according to standard methods. The IC90 (expressed in μg/ml) was defined as the 90% inhibitory concentration for bacterial growth.
(§4) BSU 3639 means Bacillus subtilis (ATCC43639); ECO 25922 means Escherichia coli (ATCC25922); EFA 14506 means Enterococcus faecalis (ATCC14506); EFA 29212 means Enterococcus faecalis (ATCC29212); LMO 49594 means Listeria monocytogenes (ATCC49594); PAE 27853 means Pseudomonas aeruginosa (ATCC27853); SMU 33402 means Streptococcus mutans (ATCC33402); SPN 6305 means Streptococcus pneumoniae (ATCC6305); SPY 8668 means Streptococcus pyogens (ATCC8668); STA 43300 means Staphylococcus aureus (ATCC43300); STA 25923 means Staphylococcus aureus (ATCC25923); STA 29213 means Staphylococcus aureus (ATCC29213); STA RMETH means methicilline resistant Staphylococcus aureus (MRSA) (a clinical isolate from the University of Antwerp). ATCC means American type tissue culture.
A general note: Alamar Blue is a resazurin reagent that responds to reducing activity.

Assay [2] deals with Enterococcus faecalis (ATCC14506). The experiment in a line: Microtitre plate assay, IC90 determination, EFA 14506. The note with it: 90% inhibitory concentration for bacterial growth, 37° C., 24 hours, resazurin fluorescence. On the procedure:
as §1, §2, §3, §4

For assay [3], the system named is Enterococcus faecalis (ATCC29212). The experiment in a line: Microtitre plate assay, IC90 determination, EFA 29212. The note with it: Enterococcus faecalis, ATCC29212, 24 h, 90% inhibitory concentration for bacterial growth, 37° C., resazurin fluorescence, read-out: IC90 (μg/ml) EFA 29212. As to the method:
as §1, §2, §3, §4

Assay [4] deals with Listeria monocytogenes (ATCC49594). The experiment in a line: Microtitre plate assay, IC90 determination, LMO 49594. The settings on record: 90% inhibitory concentration for bacterial growth, 37° C., resazurin fluorescence; for IC90 (μg/ml) LMO 49594: 24 hours. The essentials: (§5)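 Growth inhibition is measured fluorometrically with resazurin after 24 hours at 37° C in Mueller-Hinton broth, starting from an inoculum of roughly 100 TCID50. The IC90, in μg/ml, is the concentration inhibiting bacterial growth by 90%.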

Assay [5] has as its system Pseudomonas aeruginosa (ATCC27853). The experiment in a line: Microtitre plate assay, IC90 determination, PAE 27853. The settings on record: 90% inhibitory concentration for bacterial growth, 37° C., resazurin fluorescence. On the procedure:
as §1, §2, §3, §4

For assay [6], the system named is Streptococcus mutans (ATCC33402). The experiment in a line: Microtitre plate assay, IC90 determination, SMU 33402. The note with it: 90% inhibitory concentration for bacterial growth, 37° C., 24 hours, resazurin fluorescence. The procedure, abridged:
as §5

The subject of assay [7] is Streptococcus pneumoniae (ATCC6305). Briefly: Microtitre plate assay, IC90 determination, SPN 6305. The settings on record: 90% inhibitory concentration for bacterial growth, 37° C., 24 hours, resazurin fluorescence. The procedure, abridged: as §5
Assay [8] relates to Streptococcus pyogens (ATCC8668). Briefly: Microtitre plate assay, IC90 determination, SPY 8668. The settings on record: 90% inhibitory concentration for bacterial growth, 37° C., resazurin fluorescence; for IC90 (μg/ml) SPY 8668: 24 hours. The essentials: as §5
Assay [9] has as its system Staphylococcus aureus (ATCC43300). The experiment in a line: Microtitre plate assay, IC90 determination, STA 43300. The note with it: 90% inhibitory concentration for bacterial growth, 37° C., 24 hours, resazurin fluorescence. On the procedure: as §1, §2, §3, §4
The test system of assay [10] is Staphylococcus aureus (ATCC25923). The experiment in a line: Microtitre plate assay, IC90 determination, STA 25923. The note with it: 90% inhibitory concentration for bacterial growth, 37° C., resazurin fluorescence; for IC90: Staphylococcus aureus, ATCC25923, 24 h, read-out: IC90 (μg/ml) STA 25923. On the procedure:
as §1, §2, §3, §4

Assay [11] relates to methicilline resistant Staphylococcus aureus (MRSA) (a clinical isolate from the University of Antwerp). Briefly: Microtitre plate assay, IC90 determination, STA RMETH. The note with it: 90% inhibitory concentration for bacterial growth, 37° C., resazurin fluorescence; for IC90: Staphylococcus aureus, MRSA, 24 h, read-out: IC90 (μg/ml) STA RMETH. On the procedure:
as §1, §2, §3, §4

The subject of assay [12] is Escherichia coli (ATCC25922). Briefly: Microtitre plate assay, IC90 determination, ECO 25922. The settings on record: 90% inhibitory concentration for bacterial growth, 37° C., 24 hours, resazurin fluorescence, read-out: IC90 (μg/ml) ECO 25922. On the procedure:
as §1, §2
(§6) Flat-bottom, sterile 96-well plastic microtiter plates were filled with 180 μl of sterile deionized water, supplemented with 0.25% BSA. Subsequently, stock solutions (7.8× final test concentration) of compounds were added in 45 μl volumes in column 2. Serial five-fold dilutions (45 μl in 180 μl) were made directly in the microtiter plates from column 2 to reach column 11. Untreated control samples with (column 1) and without (column 12) inoculum were included in each microtiter plate. […] At the end of incubation, one day after inoculation, the bacterial growth was quantitated fluorometrically. […] The fluorescence was read in a computer-controlled fluorometer (Cytofluor Biosearch) at an excitation wavelength of 530 nm and an emission wavelength of 590 nm. The % growth inhibition achieved by the compounds was calculated according to standard methods. […]

In assay [13] the test system is Staphylococcus aureus (ATCC29213). The experiment in a line: Microtitre plate assay, IC90 determination, STA 29213. The note with it: 90% inhibitory concentration for bacterial growth, 37° C., 24 hours, resazurin fluorescence. As to the method:
as §1, §2, §6

Values after ≈ are worked out from the molar mass of the structure shown.

As for `COc1nc2ccc(Br)cc2cc1C(c1ccccc1)C(O)(CCN(C)C)c1cccc2ccccc12` (stereo not drawn) [Compound 14], the “IC90 (μg/ml) BSU 43639” value in assay [1] (24 hours) was determined as 11.1 µg/mL (≈ 20 µM). In assay [2], the “IC90 (μg/ml) EFA 14506” value came to 9.9 µg/mL (≈ 17.8 µM). Further, the IC90 in assay [3] is 5 µg/mL (≈ 9 µM); in assay [10], 9.9 µg/mL (≈ 17.8 µM); in assay [11], 14 µg/mL (≈ 25.2 µM). In addition, the “IC90 (μg/ml) LMO 49594” value in assay [4] was 2.5 µg/mL (≈ 4.5 µM). For the same compound, in [5] (24 hours), the “IC90 (μg/ml) PAE 27853” value stood at 5.0 µg/mL (≈ 9 µM). The “IC90 (μg/ml) SMU 33402” value in [6] stood at 12.4 µg/mL (≈ 22.3 µM). For the same compound, the “IC90 (μg/ml) SPN 6305” value in assay [7] amounted to 6.2 µg/mL (≈ 11.2 µM). Also, the “IC90 (μg/ml) SPY 8668” value in assay [8] worked out at 2.8 µg/mL (≈ 5.04 µM). Further, the “IC90 (μg/ml) STA 43300” value in [9] was found to be 5.6 µg/mL (≈ 10.1 µM).

In the case of `CSc1nc2ccc(Br)cc2cc1C(c1ccccc1)C(O)(CCN(C)C)c1ccccc1` (stereo not drawn) [Compound 32], the IC90 amounted to 11.7 µg/mL (≈ 22.4 µM) in assay [12]; 4.6 µg/mL (≈ 8.82 µM) in [3]; 4.6 µg/mL (≈ 8.82 µM) in assay [4] (Listeria monocytogenes, ATCC49594, 24 h, read-out: IC90 (μg/ml) LMO 49594); 10.4 µg/mL (≈ 19.9 µM) in [5] (Pseudomonas aeruginosa, ATCC27853, 24 h, read-out: IC90 (μg/ml) PAE 27853); 4.6 µg/mL (≈ 8.82 µM) in assay [8] (Streptococcus, ATCC8668, 24 h, read-out: IC90 (μg/ml) SPY 8668); 9.3 µg/mL (≈ 17.8 µM) in assay [10]. Moreover, the IC90 in assay [11] amounted to 13.1 µg/mL (≈ 25.1 µM). Also, in assay [6], the “IC90 (μg/ml) SMU 33402” value was 4.6 µg/mL (≈ 8.82 µM). Also, the “IC90 (μg/ml) SPN 6305” value in assay [7] was 13.1 µg/mL (≈ 25.1 µM). Besides, the “IC90 (μg/ml) STA 43300” value in assay [9] stood at 13.1 µg/mL (≈ 25.1 µM).

As for `COc1nc2ccc(Br)cc2cc1C(c1ccccc1)C(O)(CCn1ccnc1)c1ccccc1` (stereo not drawn) [Compound 50], the IC90 in assay [1] (Bacillus subtilis, ATCC43639, 24 h, read-out: IC90 (μg/ml) BSU 43639) is 10.5 µg/mL (≈ 19.9 µM); in [3] it was 10.5 µg/mL (≈ 19.9 µM); in assay [13] (read-out: IC90 (μg/ml) STA 29213) it was 26.5 µg/mL (≈ 50.1 µM). For the same compound, in assay [4], the “IC90 (μg/ml) LMO 49594” value worked out at 23.6 µg/mL (≈ 44.7 µM). Also, in [6], the “IC90 (μg/ml) SMU 33402” value came to 21.0 µg/mL (≈ 39.7 µM). Further, the “IC90 (μg/ml) SPY 8668” value in assay [8] was 26.5 µg/mL (≈ 50.1 µM). In addition, the “IC90 (μg/ml) STA RMETH” value in assay [11] (24 hours) was 10.5 µg/mL (≈ 19.9 µM).

For the compound `CCNCCC(O)(c1ccc(F)cc1F)C(c1ccccc1)c1cc2cc(Br)ccc2nc1OC` (racemic) [Compound A], the “IC90 (μg/ml) SMU 33402” value in assay [6] came out at 10.8 µg/mL (≈ 19.9 µM). Also, the “IC90 (μg/ml) SPN 6305” value in [7] came to 1.1 µg/mL (≈ 2.03 µM). Also, the “IC90 (μg/ml) SPY 8668” value in assay [8] is 10.8 µg/mL (≈ 19.9 µM). In addition, the “IC90 (μg/ml) STA 25923” value in assay [10] (24 hours) amounted to 10.8 µg/mL (≈ 19.9 µM). Moreover, the “IC90 (μg/ml) STA 29213” value in assay [13] was 12.1 µg/mL (≈ 22.3 µM).
